Data set [1] in a line: Compound cytotoxicity, XTT-based colorimetric assay. The class given is cell-based. The note with it: human; uninfected MT2 cells, day 4, XTT; read-out: CC50. Summed up:
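Cells seeded as for the antiviral assay but left uninfected (MT2). Compound exposure continued to day 4. XTT reagent added and colour read. CC50 calculated.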

For data set [2], the system named is recombinant NL4-3 virus (nef section replaced with Renilla luciferase gene) in MT-2 cells. In words: HIV cell culture assay (antiviral activity, luciferase readout). The class given is cell-based. As to conditions: Renilla, NL43, MT-2 cells infected for 4-5 days with recombinant NL4-3 Renilla luciferase virus. Summed up: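 293T transfection → virus harvest at 2-3 d → titer in MT-2 by luciferase. MT-2 + virus + serial cpd dilutions, 4-5 d. Live-cell luciferase read; EC50 by median effect fit.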

By CC50 is commonly meant the concentration that lowers cell viability or growth by half. For orientation: EC50 means the concentration giving half of the maximal effect.

As to `COCc1cc(C2CCC(F)(F)CC2)nc2nc([C@H](Cc3cc(F)cc(F)c3)NC(=O)Cn3nc(C(F)F)c4c3C(F)(F)[C@@H]3C[C@H]43)n(-c3ccc(Cl)c4c(NS(C)(=O)=O)nn(CCN5CCC(F)(F)CC5)c34)c(=O)c12` (atropisomer, axis not shown; (P)) [Example 676, N-[(1S)-1-[(3P)-3-{4-chloro-1-[2-(4,4-difluoropiperidin-1-yl)ethyl]-3-methanesulfonamido-1H-indazol-7-yl}-7-(4,4-difluorocyclohexyl)-5-(methoxymethyl)-4-oxo-3H,4H-pyrido[2,3-d]pyrimidin-2-yl]-2-(3,5-difluorophenyl)ethyl]-2-[(2S,4R)-9-(difluoromethyl)-5,5-difluoro-7,8-diazatricyclo[4.3.0.0^2,^4]nona-1(6),8-dien-7-yl]acetamide], the CC50 at 4 days in data set [1] was greater than 20000 pM. The half-maximal effective concentration (EC50) in data set [2] is 11 pM.
`Cc1cc(C2CCC(F)(F)CC2)nc2nc([C@H](Cc3cc(F)cc(F)c3)NC(=O)Cn3nc(C(F)F)c4c3C(F)(F)[C@@H]3C[C@H]43)n(-c3ccc(Cl)c4c(NS(C)(=O)=O)nn(C[C@@H](C)N5C[C@H](F)C[C@H](F)C5)c34)c(=O)c12` (atropisomer, axis not shown; (P)) [Example 683, N-[(1S)-1-[(3P)-3-{4-chloro-1-[(2R)-2-[(3R,5S)-3,5-difluoropiperidin-1-yl]propyl]-3-methanesulfonamido-1H-indazol-7-yl}-7-(4,4-difluorocyclohexyl)-5-methyl-4-oxo-3H,4H-pyrido[2,3-d]pyrimidin-2-yl]-2-(3,5-difluorophenyl)ethyl]-2-[(2S,4R)-9-(difluoromethyl)-5,5-difluoro-7,8-diazatricyclo[4.3.0.0^2,^4]nona-1(6),8-dien-7-yl]acetamide]: the CC50 at 4 days in data set [1] is greater than 20000 pM. Moreover, in data set [2], the EC50 turned out to be 6 pM.
Regarding `C[C@H](Cn1nc(NS(C)(=O)=O)c2c(Cl)ccc(-n3c([C@H](Cc4cc(F)cc(F)c4)NC(=O)Cn4nc(C(F)F)c5c4C(F)(F)[C@@H]4C[C@H]54)nc4nc(C5CCC(F)(F)CC5)cc(C5CC5)c4c3=O)c21)N1C[C@H](F)C[C@H](F)C1` (atropisomer, axis not shown; (P)) [Example 684, N-[(1S)-1-[(3P)-3-{4-chloro-1-[(2R)-2-[(3R,5S)-3,5-difluoropiperidin-1-yl]propyl]-3-methanesulfonamido-1H-indazol-7-yl}-5-cyclopropyl-7-(4,4-difluorocyclohexyl)-4-oxo-3H,4H-pyrido[2,3-d]pyrimidin-2-yl]-2-(3,5-difluorophenyl)ethyl]-2-[(2S,4R)-9-(difluoromethyl)-5,5-difluoro-7,8-diazatricyclo[4.3.0.0^2,^4]nona-1(6),8-dien-7-yl]acetamide], the CC50 at 4 days in data set [1] was greater than 20000 pM. In addition, the concentration giving a half-maximal response (EC50) in data set [2] stood at 14 pM.
For `Cc1cc(C2(F)CCC(F)(F)CC2)nc2nc([C@H](Cc3cc(F)cc(F)c3)NC(=O)Cn3nc(C(F)F)c4c3C(F)(F)[C@@H]3C[C@H]43)n(-c3ccc(Cl)c4c(NS(C)(=O)=O)nn(C[C@@H](C)N5C[C@H](F)C[C@H](F)C5)c34)c(=O)c12` (atropisomer, axis not shown; (P)) [Example 697, N-[(1S)-1-[(3P)-3-{4-chloro-1-[(2R)-2-[(3R,5S)-3,5-difluoropiperidin-1-yl]propyl]-3-methanesulfonamido-1H-indazol-7-yl}-5-methyl-4-oxo-7-(1,4,4-trifluorocyclohexyl)-3H,4H-pyrido[2,3-d]pyrimidin-2-yl]-2-(3,5-difluorophenyl)ethyl]-2-[(2S,4R)-9-(difluoromethyl)-5,5-difluoro-7,8-diazatricyclo[4.3.0.0^2,^4]nona-1(6),8-dien-7-yl]acetamide], in that order: greater than 20000 pM and 9 pM.
For `Cc1cc(C2(F)CCC(F)(F)CC2)nc2nc([C@H](Cc3cc(F)cc(F)c3)NC(=O)Cn3nc(C(F)F)c4c3C(F)(F)[C@@H]3C[C@H]43)n(-c3ccc(Cl)c4c(NS(C)(=O)=O)nn([C@H](C)CN5C[C@H](F)C[C@H](F)C5)c34)c(=O)c12` (atropisomer, axis not shown; (P)) [Example 711, N-[(1S)-1-[(3P)-3-{4-chloro-1-[(2R)-1-[(3R,5S)-3,5-difluoropiperidin-1-yl]propan-2-yl]-3-methanesulfonamido-1H-indazol-7-yl}-5-methyl-4-oxo-7-(1,4,4-trifluorocyclohexyl)-3H,4H-pyrido[2,3-d]pyrimidin-2-yl]-2-(3,5-difluorophenyl)ethyl]-2-[(2S,4R)-9-(difluoromethyl)-5,5-difluoro-7,8-diazatricyclo[4.3.0.0^2,^4]nona-1(6),8-dien-7-yl]acetamide], in that order: greater than 20000 pM and 26 pM.
Take `C[C@H](CN1C[C@H](F)C[C@H](F)C1)n1nc(NS(C)(=O)=O)c2c(Cl)ccc(-n3c([C@H](Cc4cc(F)cc(F)c4)NC(=O)Cn4nc(C(F)F)c5c4C(F)(F)[C@@H]4C[C@H]54)nc4nc(C5CCC(F)(F)CC5)cc(C5CC5)c4c3=O)c21` (atropisomer, axis not shown; (P)) [Example 716, N-[(1S)-1-[(3P)-3-{4-chloro-1-[(2R)-1-[(3R,5S)-3,5-difluoropiperidin-1-yl]propan-2-yl]-3-methanesulfonamido-1H-indazol-7-yl}-5-cyclopropyl-7-(4,4-difluorocyclohexyl)-4-oxo-3H,4H-pyrido[2,3-d]pyrimidin-2-yl]-2-(3,5-difluorophenyl)ethyl]-2-[(2S,4R)-9-(difluoromethyl)-5,5-difluoro-7,8-diazatricyclo[4.3.0.0^2,^4]nona-1(6),8-dien-7-yl]acetamide]: the CC50 at 4 days in data set [1] was greater than 20000 pM. Besides, the EC50 in data set [2] came out at 35 pM.
As to `Cc1cc(C2(F)CCC(F)(F)CC2)nc2nc([C@H](Cc3cc(F)cc(F)c3)NC(=O)Cn3nc(C(F)F)c4c3C(F)(F)[C@@H]3C[C@H]43)n(-c3ccc(Cl)c4c(NS(C)(=O)=O)nn(C[C@H](C)N5CC(C)(C)OC(C)(C)C5)c34)c(=O)c12` (atropisomer, axis not shown; (P)) [Example 717, N-[(1S)-1-[(3P)-3-{4-chloro-3-methanesulfonamido-1-[(2S)-2-(2,2,6,6-tetramethylmorpholin-4-yl)propyl]-1H-indazol-7-yl}-5-methyl-4-oxo-7-(1,4,4-trifluorocyclohexyl)-3H,4H-pyrido[2,3-d]pyrimidin-2-yl]-2-(3,5-difluorophenyl)ethyl]-2-[(2S,4R)-9-(difluoromethyl)-5,5-difluoro-7,8-diazatricyclo[4.3.0.0^2,^4]nona-1(6),8-dien-7-yl]acetamide], in data set [1], the CC50 at 4 days was greater than 20000 pM. Moreover, the concentration for a half-maximal effect (EC50) in data set [2] turned out to be 32 pM.
The matching figures for `Cc1cc(C2(F)CCC(F)(F)CC2)nc2nc([C@H](Cc3cc(F)cc(F)c3)NC(=O)Cn3nc(C(F)F)c4c3C(F)(F)[C@@H]3C[C@H]43)n(-c3ccc(Cl)c4c(NS(C)(=O)=O)nn(C[C@@H](C)N5C[C@@H](C)O[C@@H](C)C5)c34)c(=O)c12` (atropisomer, axis not shown; (P)) [Example 720, N-[(1S)-1-[(3P)-3-{4-chloro-1-[(2R)-2-[(2R,6S)-2,6-dimethylmorpholin-4-yl]propyl]-3-methanesulfonamido-1H-indazol-7-yl}-5-methyl-4-oxo-7-(1,4,4-trifluorocyclohexyl)-3H,4H-pyrido[2,3-d]pyrimidin-2-yl]-2-(3,5-difluorophenyl)ethyl]-2-[(2S,4R)-9-(difluoromethyl)-5,5-difluoro-7,8-diazatricyclo[4.3.0.0^2,^4]nona-1(6),8-dien-7-yl]acetamide]: greater than 20000 pM and 7 pM.
